In patent US11931429B2, “Chemiluminescent probes for diagnostics and in vivo imaging” (RAMOT AT TEL-AVIV UNIVERSITY LTD., priority 2016, dated 2024):
“Also recorded” adds a separate entry of the source.

Assays:
β-galactosidase [1] = tested on: β-galactosidase
Experimental: Spectra were recorded in PBS (100 mM), pH 7.4, in the presence of 1.5 units/mL β-galactosidase (continuous lines). Dotted line is the fluorescence emission spectrum (DCL—direct chemiluminescence).
Fluorescence and chemiluminescence were recorded on Molecular Devices Spectramax i3x.
Chemiluminescence parameters measured for Probes 1, 2 and 3 and their ability to detect and image β-galactosidase. Next, we measured the light emission of the probes, as a function of time, in the presence and in the absence of β-galactosidase.
The chemiluminescence quantum yield (ϕCL) of probes 2 and 3 was calculated using that of Probe 1 as a known standard (Edwards et al., 1994).

β-galactosidase [2] = conditions: Probe 1, known standard (Edwards et al., 1994); cited from earlier work
[3] = Light-induced decomposition under normal room illumination, monitored by RP-HPLC; type: physicochemical; conditions: PBS pH 7.4, normal room illumination
Experimental: Probes (300 μM) were incubated in PBS (100 mM), pH 7.4, at ambient temperature.
Light-induced decomposition of dioxetane-dye conjugates. While working on the synthesis of the dioxetane-fluorophore conjugates, we encountered an unexpected phenomenon. Although Probe 1 seemed to be photostable, Probes 2 and 3 appeared to decompose under normal room illumination conditions. We measured the photostability of the probes in aqueous solution (PBS, pH 7.4) under normal room illumination. The light-induced decomposition was monitored over several hours by a RP-HPLC assay (FIG. 2).

HEK293-LacZ stable cells = assay: Chemiluminescence microscopy imaging of β-galactosidase activity in HEK293-LacZ cells; type: cell-based; conditions: 5 μM, 20 min incubation, 60× objective, seconds exposure (Study 2)
Experimental: (§1) Images were obtained following 20 min incubation with cell culture medium containing Probe 3 (5 μM).
(§2) Images were obtained following 20 min incubation with cell culture medium containing Probe 7 (5 μM). Images were taken by the LV200 Olympus-microscope using 60× objective and 40s exposure time.
(§3) Chemiluminescence microscopy imaging of β-galactosidase activity. Chemiluminescence images were acquired using Olympus LV200 inverted microscope fitted with an EMCCD camera (Hamamatsu C9100-13). HEK293 LacZ stable cells (amsbio SC003) and HEK293-WT cells (control) were grown on 35 mm glass bottom petri dishes at 37° C. for 24 h. Cell culture medium was changed to Molecular Probes® Live Cell Imaging Solution containing 5 μM of Probe 3. Cells were incubated for another 20 minutes at 37° C. Thereafter, images were recorded with 20 […] exposure time.
To improve the image quality, the HEK293-LacZ cells were fixed by using 4% formaldehyde and permeabilized with 0.1% Triton X-100. The cells were then incubated with Probe 3 and imaged by the microscope using a 60× objective (NA 1.42).
Chemiluminescence images were acquired using Olympus LV200 inverted microscope fitted with an EMCCD camera (Hamamatsu C9100-13). […] Thereafter, images were recorded with 40 seconds exposure time.

HEK293-WT cells = assay: Chemiluminescence microscopy imaging, HEK293-WT control cells; type: cell-based; conditions: 5 μM, 20 min incubation (Study 2)
Experimental: as §1, §2, §3
Chemiluminescence images were acquired using Olympus LV200 inverted microscope fitted with an EMCCD camera (Hamamatsu C9100-13). HEK293 LacZ stable cells (amsbio SC003) and HEK293-WT cells (control) were grown on 35 mm glass bottom petri dishes at 37° C. for 24 h. Cell culture medium was changed to Molecular Probes® Live Cell Imaging Solution containing 5 μM of probe 4. Cells were incubated for another 20 minutes at 37° C. Thereafter, images were recorded with 40 seconds exposure time.

Row | SMILES | λmax [nm] (chemiluminescence emission) (β-galactosidase [1]; 1 μM, PBS (100 mM) pH 7.4, 1.5 units/mL β-galactosidase) | Relative ΦCL (β-galactosidase [1]; relative to Probe 1) | ΦCL (chemiluminescence quantum yield) (β-galactosidase [2]) | photostability under normal room illumination [3] | chemiluminescence images of HEK293-LacZ cells (HEK293-LacZ stable cells) | chemiluminescence signal of HEK293-WT cells (HEK293-WT cells)
1 | COC1(c2cccc(O[C@@H]3OC(CO)[C@H](O)[C@H](O)C3O)c2Cl)OOC12C1CC3CC(C1)CC2C3 (stereo partly drawn) [Probe 1, reference compound] | 470 nm | 1 | 3.3 × 10^−5 | photostable; also recorded: unaffected by light |  | 
2 | COC(=O)/C=C/c1ccc(C2(OC)OOC23C2CC4CC(C2)CC3C4)c(Cl)c1OCc1ccc(O[C@@H]2OC(CO)[C@H](O)C(O)C2O)cc1 (stereo partly drawn) [Probe 7] |  |  |  |  | high quality chemiluminescence images; also recorded: excellent chemiluminescence cell images | No chemiluminescence signal at all was observed
